Source: patent US20040072750A1, “Compounds and methods for the modulation of CD154” (priority 2001, published 2004)
“Also recorded” adds a separate entry of the source. Bridge positions count the residues as written; N and C are the ends. Square brackets hold non-standard residues; d marks the D form. Peptide text beside a SMILES is read from it. hArg = N=C(N)NCCCC[C@H](N)C(=O)O; Mpa = O=C(O)CCS

B1: rsCD154: bacterially expressed recombinant human soluble CD154 (108 a.a-261 a.a.), 18-kDa protein (protein)
chain: ENSFEMQKGDQNPQIAAHVISEASSKTTSVLQWAEKGYYTMSNNLVTLENGKQLTVKRQGLYYIYAQVTFCSNREASSQAPFIASLCLKSPGRFERILLRAANTHSSAKPCGQQSIHLGGVFELQPGASVFVNVTDPSQVSHGTGFTSFGLLKL

Assays:
Type in all cases: cell-based, human
[1] = test system: washed platelets; assay: Western blot analysis of immunoprecipitated platelet CD154 (hydrolysis to 18 kDa sCD154)
Description: As previously described, CD154 exists as a 33/31 kDa doublet in unstimulated platelets.

[2] = test system: platelets; assay: Release of sCD154 from stimulated platelets in platelet-rich plasma (ELISA)
Description: Platelet-rich plasma (PRP) was prepared from human donors by obtaining blood through a 19-gauge butterfly into PPACK anticoagulant (8.6 ml of 2.1 mM PPACK, Calbiochem, La Jolla, Calif.: final concentration 0.3 mM). Blood was aliquoted into 15 ml polypropylene tubes and centrifuged at 900 rpm for 20 minutes (160×g). The platelet rich plasma (PRP) was carefully removed and pooled in a new tube. Platelet counts were taken and recorded. Aliquots of PRP at 37° C. were then added to 1.5 ml microcentrifuge tubes containing various amounts of eptifibatide. To initiate aggregation, 20 μM ADP 4 μg/mL collagen or 5 μM TRAP6 was added and samples were rocked on a Nutator for 30 minutes at 37° C. The tubes were put on ice and immediately centrifuged at 15,000×g for 10 minutes at 4° C.
The platelet-poor plasma (PPP) supernatant was removed to new tubes and the levels of sCD154 in these samples were measured by ELISA. There was a time-dependent increase in sCD154 release when platelets were aggregated with either ADP or TRAP6.
In other experiments, various concentrations of eptifibatide, abciximab or tirofiban were added to PRP before the addition of TRAP. In the eptifibatide experiments, the release of βTG from platelet a granules was determined from PPP samples by ELISA. Inhibition of aggregation by GP IIb-IIIa antagonists was determined in PPACK-anticoagulated PRP by light-transmission aggregometry (Chrono-Log) as described in Phillips et al. (1995) J Exp. Med 182:33-40. To assess the effect of aspirin use on the release of sCD154 from platelets, PRP was obtained from 7 donors, incubated with a single concentration of GP IIb-IIIa inhibitor, and stimulated with 20 μmol/L ADP, 5 μmol/L TRAP or 4 μg/mL collagen for 30 minutes while rocking at 37° C. Resultant PPP was measured for sCD154. The same donors then took 325 mg of aspirin for 7 days. PRP was again collected and subjected to the same conditions, and the release of sCD154 was determined. A control reading (no addition of inhibitor) was taken with the agonist 0.5 mmol/L arachidonic acid in citrated PRP to ensure that the aspirin had been taken.

[3] = test system: washed platelets; assay: Fibrinogen binding to washed platelets and microparticle generation (flow cytometry)
Description: Venous blood was collected from normal donors into ACD buffer (85 mM Sodium Citrate, […] and 71 mM Citric acid) containing 0.05 μg/ml prostaglandin 12(PGI2). Blood was later centrifuged at 160×g for 20 minutes to collect platelet rich plasma (PRP). PRP was centrifuged at 1100×g for 10 minutes to sediment platelets. Platelets were washed twice with CGS buffer (13 mM trisodium citrate, 120 mM sodium chloride and 30 mM dextrose pH 7.0). The first wash had 0.03 μg/ml PGI2. Washed platelets were finally suspended in Tyrodes-Hepes buffer (12 mM sodium bi-carbonate, 138 mM sodium chloride, 5.5 mM glucose, 2.9 mM potassium chloride, 10 mM Hepes, 1 mM calcium chloride and 1 mM magnesium chloride, pH 7.4).
Washed platelets (1×10^7/ml) were incubated for 60 minutes at 37° C. with 2 μM soluble CD154 (sCD154) or mutant sCD154 (D117E mutation in the KGD sequence) in the presence or absence of eptifibatide or anti-CD40 antibody. All incubations had 100 nM Alexa-Fibrinogen (Molecular probes, Eugene, Oreg.). Samples were diluted 10 fold with stain buffer (BD Pharmingen, Los Angeles, Calif.) after incubation and analyzed by flow cytometry (FACSort, BD, San Jose, Calif.).

[4] = test system: platelets in whole blood; assay: Perfusion chamber: thrombus formation of whole blood on protein-coated surface under shear
Description: The effect of CD154 on the aggregation of platelets under conditions of high shear stress were evaluated. Recombinant CD154 (rCD154 or rCD40L) was compared to fibrinogen (Fg) in its ability to form thrombi as well as in combination with Fg. Controls also included CD154 in which the KGD eptifibatide-recognition sequence was mutated to KGE (CD154(KGE) or CD40L(KGE)). Briefly, a silicone gasket with a flow path height of 127 μm was placed between a flat perfusion chamber (Glycotech, Rockville, Md.) and a protein-coated petri dish as described (Andre, P. et al., Nature Medicine, 8:247-252 (2002)). Petri dishes were coated with rCD40L, Fibrinogen (Fg), rCD40L+Fg, mutated CD40L (CD40L(KGE)), CD40L(KGE)+Fg. In one experiment, the glycoprotein IIb/IIIa antagonist eptifibatide (2 μM) was incubated with whole blood before perfusion over the rCD40L-coated surface. When Fg was coated with either rCD40L or CD40L(KGE), each molecule was deposited at 25 μg/cm^2. Coating of the proteins was performed using the spray method in which 25 μl of a 1 mg/ml protein solution is coated onto the plastic with a retouching air brush resulting in a concentration of 25 μg/cm^2 (Houdijk, WP et al., J. Clin. Invest., 75:531-540 (1985)). Human peripheral blood was collected on PPACK (40 μmol/L final concentration) and perfused for 4 minutes over the protein-coated surface. Shear rates of 1500-1600/s, 500-600/s and 100-200/s, were generated with flow rates of ˜0.6, 0.25 and 0.075 ml/min, respectively. Measurements of thrombotic deposits were performed using the Simple PCI software image analysis program (Technical Instrument, Burlingame, Calif.).

Molecule	hydrolysis of CD154 and release of sCD154 from stimulated platelets ([1]; 5 μmol/L TRAP plus 2.5 μmol/L eptifibatide, 30 minutes)	CD154 hydrolysis and appearance of the soluble 18 kDa fragment ([1]; TRAP aggregation, 5 μM eptifibatide)	Inhibition of sCD154 Release at >90% Platelet Aggregation Inhibition, % ([2]; TRAP-stimulated platelets, release without GP IIb-IIIa inhibitor set at 100%, average and SD)	release of sCD154 from platelets activated with ADP or TRAP ([2]; inhibitor added prior to agonist, PPACK plasma)	Potentiation of sCD154 Release, % ([2]; maximal potentiation, TRAP-stimulated platelets, release without inhibitor set at 100%, average and SD)	effect on sCD154-induced fibrinogen binding and microparticle generation ([3]; 2 μM sCD154, eptifibatide 2.5 μM)	Binding of platelets to the rCD40L ([4]; eptifibatide 2 μM incubated with whole blood)	fibrinogen binding to platelets and generation of microparticles ([3]; 2 μM protein, 60 minutes at 37° C., FIG. 10)	aggregation process (mean thrombus area) on coated surface versus Fg ([4]; shear rate of 1500-1600/s, 25 μg/cm^2 coating)
N=C(N)NCCCC[C@@H]1NC(=O)CCSSC[C@@H](C(N)=O)NC(=O)[C@@H]2CCCN2C(=O)[C@H](Cc2c[nH]c3ccccc23)NC(=O)[C@H](CC(=O)O)NC(=O)CNC1=O [eptifibatide] ([Mpa][hArg]GDWPC-NH2; disulfide 1-7)	inhibited	prevented	85 ± 6.3%	blocked in a dose dependent manner; also recorded: inhibited	26 ± 10%	inhibited	inhibited		
B1								induced	significantly enhances
